The source of these data is patent US8377895B2, “Cyclin-dependent protein kinases inhibitors of Scutellaria flavonoid organic amine derivatives, synthesis and use thereof” (priority 2008, dated 2013).

pIC50: −log10 of the molar value. Converted amounts (≈) assume the structure as drawn.

One data set has as its system Prostate (PC-3). The data set is described as follows: Anticancer activity in vitro (Table 3), PC-3. The data set is classed as cell-based, human. The following applies: 48 h.
In the next data set the target is Cdk1/Cyclin B (Homo sapiens, UniProt P06493). The data set is described as follows: Cdk1/Cyclin B inhibitory activity, Z'-LYTE Kinase Assay. The data set is classed as biochemical. Particulars: for pIC50: ATP 10 μM, 8 concentrations of 0.01-25 μM.
The next data set relates to gastric (BGC-823). The data set is described as follows: Anticancer activity in vitro (Table 3), BGC-823. The class given is cell-based, human.
A further data set relates to MCF-7. The experiment in a line: cells. The following applies: Homo sapiens; for CC50: MCF7, read-out: MCF-7 LC50; for GI50: MCF7, read-out: MCT-7 GI50.
For data set [1], the system named is 58 kinds human tumor cell. The data set is described as follows: NCI growth inhibition of 58 kinds human tumor cell. The data set is classed as cell-based. Particulars: 48 h, by NCI, read-out: growth inhibition rates in vitro 58 kinds human tumor cell.
The nature of data set [2]: Druggability screening: protein binding rate. The data set is classed as in vitro ADME.
For the next data set, the system named is Breast (MCF-7). The experiment in a line: Anticancer activity in vitro (Table 3), MCF-7. The data set is classed as cell-based, human.
For data set [3] the following is noted: in vivo.
The nature of data set [4]: Druggability screening: solubility in PBS (pH7.4). The class given is physicochemical. The following applies: pH 7.4, aqueous buffer.
The subject of a further data set is CD4+T lymphocytes. The data set is described as follows: Differentiate growth inhibition of CD4+T lymphocytes. The data set is classed as cell-based. Particulars: 48 h, induced by growth factor IL-3 and IL-5, read-out: differentiate growth inhibition rates of CD4+T lymphocytes. From the text:
These show a good prospect against AIDS, and are going to be prepared anti-AIDS drugs.

Chain of Cdk1/Cyclin B (P06493 whole entry): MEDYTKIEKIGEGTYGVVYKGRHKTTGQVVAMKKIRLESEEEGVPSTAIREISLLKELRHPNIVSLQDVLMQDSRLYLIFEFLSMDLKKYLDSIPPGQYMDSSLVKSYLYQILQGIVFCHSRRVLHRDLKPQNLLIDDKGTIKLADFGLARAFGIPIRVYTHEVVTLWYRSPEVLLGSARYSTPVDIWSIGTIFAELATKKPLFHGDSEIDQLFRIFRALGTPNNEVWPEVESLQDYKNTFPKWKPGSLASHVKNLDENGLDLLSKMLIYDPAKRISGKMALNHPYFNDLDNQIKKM
Chain of Cdk1/Cyclin B (P14635 whole entry partner): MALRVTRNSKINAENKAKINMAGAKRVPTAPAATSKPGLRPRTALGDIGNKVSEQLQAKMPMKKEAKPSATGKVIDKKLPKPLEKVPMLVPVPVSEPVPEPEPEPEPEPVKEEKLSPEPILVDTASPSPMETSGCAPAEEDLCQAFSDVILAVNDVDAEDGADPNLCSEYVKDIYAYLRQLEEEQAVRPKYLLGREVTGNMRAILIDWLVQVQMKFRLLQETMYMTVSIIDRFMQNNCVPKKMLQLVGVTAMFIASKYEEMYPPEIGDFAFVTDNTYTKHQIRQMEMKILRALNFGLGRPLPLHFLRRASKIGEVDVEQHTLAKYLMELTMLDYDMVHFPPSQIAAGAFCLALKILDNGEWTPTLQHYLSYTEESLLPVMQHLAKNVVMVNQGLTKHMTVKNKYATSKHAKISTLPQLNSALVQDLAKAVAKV

In general, GI50 refers to the concentration giving 50% growth inhibition. Usually pIC50 stands for the negative decadic logarithm of the IC50, by convention in mol/L. A higher pIC50 goes with a low IC50. As for `COc1c(O)c(CN2CCN(C)CC2)c2oc(-c3ccccc3)cc(=O)c2c1O` [6-OCH3— Methylpiperazine Baicalein], the “PC-3 TGI” value with Prostate (PC-3) worked out at 76.1 µM. The concentration for 50% growth inhibition (GI50) in the data set on Prostate (PC-3) (Homo sapiens) is 11.2 µM; in the data set with gastric (BGC-823) (Homo sapiens, BGC-823, 48 h), 26.2 µM; with MCF-7 it was 26.1 µM. For the same compound, the negative logarithm of the IC50 (pIC50) in the data set with Prostate (PC-3) (Homo sapiens) was 4.06; against Cdk1/Cyclin B, 6.06; with gastric (BGC-823) (Homo sapiens, BGC-823, 48 h), 3.94. In addition, the CC50 with MCF-7 is over 100 µM.

For the compound `COc1c(O)cc(O)c2c(=O)cc(-c3ccccc3)oc12` [Wogonin, reference compound], the negative-log IC50 (pIC50) on Cdk1/Cyclin B is 5.46.

Take `COc1c(O)c(CN(C)C)c(O)c2c(=O)cc(-c3ccccc3)oc12` [Dimethylamine Wogonin, 6-((dimethylamino)methyl)-5,7-dihydroxy-8-methoxy-2-phenyl-4H-chromen-4-one]: the negative-log IC50 (pIC50) on Cdk1/Cyclin B is 5.12.

The compound `COc1c(O)c(CN2CCNCC2)c(O)c2c(=O)cc(-c3ccccc3)oc12` [Piperazine Wogonin, 5,7-dihydroxy-8-methoxy-2-phenyl-6-(piperazin-1-ylmethyl)-4H-chromen-4-one] gave a pIC50 against Cdk1/Cyclin B of 5.18. This pIC50 and that of the compound before are within 0.2 log units of each other.

Consider `CN1CC[C@H](c2c(O)cc(O)c3c(=O)cc(-c4ccccc4Cl)oc23)[C@H](O)C1` [Flavopiridol, reference compound], for which the GI50 in the data set with MCF-7 was found to be 0.048 µM.

`COc1c(O)c(CN2CCCC2)c(O)c2c(=O)cc(-c3ccccc3)oc12` [Pyrrolidine Wogonin, 5,7-dihydroxy-8-methoxy-2-phenyl-6-(pyrrolidin-1-ylmethyl)-4H-chromen-4-one] had a pIC50 against Cdk1/Cyclin B of 4.76.

The compound `COc1c(O)c(CN2CCCCC2)c(O)c2c(=O)cc(-c3ccccc3)oc12` [Piperidine Wogonin, 5,7-dihydroxy-8-methoxy-2-phenyl-6-(piperidin-1-ylmethyl)-4H-chromen-4-one] had a pIC50 against Cdk1/Cyclin B of 4.98.

As for `O=c1cc(-c2ccccc2)oc2c(CN3CCCC3)c(O)c(O)c(O)c12` [Pyrrolidine Baicalein], in the data set on MCF-7, the GI50 was 10.3 µM.

At Cdk1/Cyclin B, `COc1c(O)c(CN(CCO)CCO)c(O)c2c(=O)cc(-c3ccccc3)oc12` [Diethanolamin Wogonin, 6-((bis(2-hydroxyethyl)amino)methyl)-5,7-dihydroxy-8-methoxy-2-phenyl-4H-chromen-4-one] showed a pIC50 of 6.51.

For the compound `O=c1cc(-c2ccccc2)oc2c(CN3CCCCC3)c(O)c(O)c(O)c12` [Piperidine Baicalein], in the data set on MCF-7, the CC50 is 37.2 µM and the 50% growth inhibitory concentration (GI50) was found to be 10.5 µM.

As usually defined, the inhibition is the drop in the measured response relative to a control, in per cent. In general, half-life refers to the time in which the quantity being followed falls by half. A low value points to rapid decline. The LC50 is the concentration that kills 50% of the test population. Low values mean greater toxicity, high ones lower toxicity. For orientation: fraction unbound means free concentration divided by total concentration. For orientation: solubility means the concentration that dissolves in the medium under given conditions. High values mean a readily soluble substance, low ones a poorly soluble substance. Take `O=c1cc(-c2ccccc2)oc2c(CN3CCN(CCO)CC3)c(O)c(O)c(O)c12` [Hydroxyethylpiperazine Baicalein, 5,6,7-trihydroxy-8-((4-(2-hydroxyethyl)piperazin-1-yl)methyl)-2-phenyl-4H-chromen-4-one]: the inhibition at 10 µM in [1] amounted to 46.2%. The same compound showed a half-life in the data set “in vivo” of 3.75 h. Also, the “PC-3 TGI” value in the data set on Prostate (PC-3) came out at 15.4 µM. Also, the GI50 in the data set with Prostate (PC-3) (Homo sapiens) turned out to be 6.2 µM; in the data set with gastric (BGC-823) (Homo sapiens, BGC-823, 48 h), 6.1 µM; in the data set with Breast (MCF-7) (Homo sapiens, MCF7, 48 h) it was 6 µM; in the data set with MCF-7 it was 13.1 µM. Further, the negative logarithm of the IC50 (pIC50) was 4.94 in the data set on Prostate (PC-3) (Homo sapiens); 6.55 on Cdk1/Cyclin B; 4.71 in the data set with gastric (BGC-823) (Homo sapiens, BGC-823, 48 h); 4.69 in the data set with Breast (MCF-7) (Homo sapiens, MCF7, 48 h). Also, the LC50 in the data set on Prostate (PC-3) (Homo sapiens) was 36.6 µM. Moreover, in the data set on gastric (BGC-823) (48 h), the “BGC-823 TGI” value came out at 15.4 µM. The CC50 in the data set on gastric (BGC-823) (Homo sapiens, BGC-823, 48 h, read-out: BGC-823 LC50) is 51 µM; in the data set on Breast (MCF-7) (Homo sapiens, MCF7, 48 h, read-out: MCF-7 LC50), 32.6 µM; in the data set with MCF-7, 42.1 µM. This compound gave a fraction unbound in [2] of 0.04. Besides, in the data set with Breast (MCF-7) (48 h), the “MCF-7 TGI” value was 15.4 µM. This compound also registered a Blood drug concentration in [3] of 31.6 µM. The same compound gave a solubility in [4] of 607 µM (≈ 250 µg/mL).

In the case of `O=c1cc(-c2ccccc2)oc2c(CN3CCC(O)C3)c(O)c(O)c(O)c12` (stereo not drawn) [Hydroxylpyrrolidine Baicalein, 5,6,7-trihydroxy-8-((3-hydroxypyrrolidin-1-yl)methyl)-2-phenyl-4H-chromen-4-one], the negative logarithm of the IC50 (pIC50) against Cdk1/Cyclin B was 6.54.

As to `O=c1cc(-c2ccccc2)oc2c(CN3CCOCC3)c(O)c(O)c(O)c12` [Morpholine Baicalein], at Cdk1/Cyclin B, the negative logarithm of the IC50 (pIC50) was 6.52. Moreover, in the data set with MCF-7, the CC50 was determined as 48.9 µM and the GI50 is 10.1 µM.

`COc1c(O)c(CN2CCN(CCO)CC2)c(O)c2c(=O)cc(-c3ccccc3)oc12` [Hydroxyethylpiperazine Wogonin, 6-((4-(2-hydroxyethyl)piperazin-1-yl)methyl)-5,7-dihydroxy-8-methoxy-2-phenyl-4H-chromen-4-one] showed a half-life in “in vivo” of 4 h. Further, in the data set on CD4+T lymphocytes, the inhibition at 10 µM worked out at 55%. Besides, at Cdk1/Cyclin B, the negative-log IC50 (pIC50) was 6.49. The Blood drug concentration in data set [3] is 94.0 µM. Moreover, the solubility in data set [4] came out at 9390 µM (≈ 4000 µg/mL). In addition, in the data set on MCF-7, the CC50 worked out at 43.1 µM and the 50% growth inhibitory concentration (GI50) stood at 11.1 µM.

Compound `COc1c(O)c(CN2CCC(O)CC2)c(O)c2c(=O)cc(-c3ccccc3)oc12` [Hydroxypiperidine Wogonin, 5,7-dihydroxy-6-((4-hydroxypiperidin-1-yl)methyl)-8-methoxy-2-phenyl-4H-chromen-4-one] showed a negative-log IC50 (pIC50) against Cdk1/Cyclin B of 5.16.

Regarding `CN(C)Cc1c(O)c(O)c(O)c2c(=O)cc(-c3ccccc3)oc12` [Dimethylamine Baicalein], the GI50 in the data set with MCF-7 was found to be 12.3 µM.

`COc1c(O)c(CN2CCN(C)CC2)c(O)c2c(=O)cc(-c3ccccc3)oc12` [Methylpiperazine Wogonin, 6-((4-methylpiperazin-1-yl)methyl)-5,7-dihydroxy-8-methoxy-2-phenyl-4H-chromen-4-one] showed a pIC50 on Cdk1/Cyclin B of under 4.60.

In the case of `CN1CCC(c2c(O)cc(O)c3c(=O)cc(-c4ccccc4Cl)oc23)C1CO` (stereo not drawn) [Example P276-00, reference compound], at Cdk1/Cyclin B, the pIC50 was 6.10.

Regarding `COc1c(O)c(CN2CCSCC2)c(O)c2c(=O)cc(-c3ccccc3)oc12` [Sulfurmorpholine Wogonin, 5,7-dihydroxy-8-methoxy-2-phenyl-6-(thiomorpholinomethyl)-4H-chromen-4-one], at Cdk1/Cyclin B, the pIC50 is 5.50.

As to `O=c1cc(-c2ccccc2)oc2c(CN3CCSCC3)c(O)c(O)c(O)c12` [Sulfurmorpholine Baicalein], in the data set with MCF-7, the CC50 is 84.3 µM and the GI50 worked out at 14.2 µM.

`O=c1cc(-c2ccccc2)oc2c(CN3CCNCC3)c(O)c(O)c(O)c12` [Piperazine Baicalein] showed a negative-log IC50 (pIC50) against Cdk1/Cyclin B of 6.55. In [4], the solubility is 166 µM (≈ 61.2 µg/mL). For the same compound, in the data set with MCF-7, the CC50 turned out to be 53.1 µM and the GI50 was 13.8 µM.

As for `COc1c(O)c(CN2CCOCC2)c(O)c2c(=O)cc(-c3ccccc3)oc12` [Morpholine Wogonin, 5,7-dihydroxy-8-methoxy-6-(morpholinomethyl)-2-phenyl-4H-chromen-4-one], the pIC50 against Cdk1/Cyclin B is under 4.60.

Consider `O=C(O)[C@H]1O[C@@H](Oc2cc3oc(-c4ccccc4)cc(=O)c3c(O)c2O)[C@H](O)[C@@H](O)[C@@H]1O` [Baicalin, reference compound], for which, at Cdk1/Cyclin B, the “inhibition against Cdk1/Cyclin B (in words)” value is reported as “slight inhibition” and the negative logarithm of the IC50 (pIC50) was 4.74.
